Measured values as given in US11331364B2, “Use for JNK inhibitor molecules for treatment of various diseases” (Xigen Inflammation Ltd., priority 2014, dated 2022).
Square brackets hold non-standard residues; d marks the D form. Peptide text beside a SMILES is read from it.

Tests used:
rat whole blood = experiment: PMA+ionomycin-induced IL-2 release in rat whole blood; type: cell-based; conditions: 10 μM; three activator concentrations, 4 h
Experimental: FIG. 17 Dose dependent inhibition of IL-2 release in rat whole blood stimulated with PMA+ionomycin. JNK inhibitor with SEQ ID NO: 172 was added at three different concentrations, namely 1, 3 and 10 μM 1 h before stimulation with PMA+ionomycin. Three doses of activators were added (25/500 ng/mL, 50/750 ng/mL and 50/1000 ng/mL) for 4 h. IL-2 release was assessed in supernatant.
Whole blood is collected from anesthetized rat or human healthy volunteers using a venipuncture connected to a pre-labeled vacuum tube containing sodium citrate. Tubes are gently mixed by inversion 7-8 times; and are then kept at RT until stimulation. JNK inhibitor of SEQ ID NO: 172 is prepared 6 times concentrated in PBS, and 30 μl/well of mix is added into 96-well plate. Whole blood is diluted by 1:2 in PBS and 120 μl of diluted blood is added in each well where either PBS alone or JNK inhibitor of SEQ ID NO: 172 has been previously added. Whole blood is incubated at 37° C.; 85 rpm (Stuart Orbital incubator SI500) for 60 min. Activators (LPS) are the prepared, 30 μl/well of LPS, 6 times concentrated. […] Cytokine (IL-6, IL-2, IFNγ and TNFα) were then measured using standard Elisa kits (e.g. from R&D Systems: DuoSet Elisas; or from BD Biosciences: BD Opteia Set Elisa). Results are expressed as pg/ml of supernatant of the measured cytokine. […]

human whole blood = experiment: LPS-induced IL-6 release in human whole blood; type: cell-based; conditions: 1, 3, 10 μM 1 h before LPS (0.02 ng/mL), 4 hours
Experimental: FIG. 18 JNK inhibition and IL-6 release in human whole blood. The JNK inhibitor with SEQ ID NO: 172 was added at three different concentrations, namely 1, 3 and 10 μM 1 h before whole blood stimulation with LPS (0.02 ng/mL) for 4 hours.
Whole blood is collected from anesthetized rat or human healthy volunteers using a venipuncture connected to a pre-labeled vacuum tube containing sodium citrate. Tubes are gently mixed by inversion 7-8 times; and are then kept at RT until stimulation. JNK inhibitor of SEQ ID NO: 172 is prepared 6 times concentrated in PBS, and 30 μl/well of mix is added into 96-well plate. Whole blood is diluted by 1:2 in PBS and 120 μl of diluted blood is added in each well where either PBS alone or JNK inhibitor of SEQ ID NO: 172 has been previously added. Whole blood is incubated at 37° C.; 85 rpm (Stuart Orbital incubator SI500) for 60 min. Activators (LPS) are the prepared, 30 μl/well of LPS, 6 times concentrated. After 60 min incubation, LPS is added to the blood, blood is mixed by pipetting up and down, and then kept for 4 h under agitation (85 rpm), at 37° C. […] Cytokine (IL-6, IL-2, IFNγ and TNFα) were then measured using standard Elisa kits (e.g. from R&D Systems: DuoSet Elisas; or from BD Biosciences: BD Opteia Set Elisa). Results are expressed as pg/ml of supernatant of the measured cytokine.

primary human T-cells = experiment: IL-2 secretion by primary human T-cells; type: cell-based
Text: The JNK inhibitors used are indicated by their SEQ ID NO: 172 and 197.

[1] = system: acute CYP-induced cystitis in female Sprague-Dawley rats; experiment: Cyclophosphamide-induced acute cystitis, intravenous treatment, visceral pain; type: in vivo, rat; conditions: 2 mg/kg, i.v.; 24 h after CYP
Experimental: The aim of the present study was to evaluate the effects of intravenous treatment with XG-104 (2 mg/kg) on urinary bladder pain in acute CYP-induced cystitis in female Sprague-Dawley rats. This preclinical model is well-used to test therapeutic approaches for the treatment of interstitial cystitis/painful bladder syndrome (IC/PBS).
Adult female Sprague-Dawley rats (Janvier Labs, Le Genest Saint Isle, France), weighing 215±20 g at the beginning of the experiments, were used. Animals were acclimatized to the laboratory conditions for at least 3 days before the start of any experiments. The animals were allocated to the following four experimental groups (n=10 animals per group):
To induce acute cystitis, a single i.p. injection of CYP at a dose of 150 mg/kg in a final volume of 5 mL/kg was performed. Control rats received physiological saline under the same experimental conditions as CYP (final volume of 5 mL/kg, i.p.).
On the day of each experiment, weight of rats was recorded.
Assessment of referred visceral pain using von Frey filaments: Standardized conditions including fixed time-of-day (a.m. to minimize the potential circadian variations in the behaviours responses) and single-experimenter testing of all animals were applied to minimize variability behavior-based pain testing. Visceral pain including allodynia and hyperalgesia was evaluated by applying to the lower abdomen, close to the urinary bladder, a set of 8 calibrated von Frey filaments of increasing forces (1, 2, 4, 6, 8, 10, 26 and 60 g) with an interstimulus interval of 5 seconds. Prior testing, the abdominal area designed for mechanical stimulation of each animal was shaved. Animals were then placed on a raised wire mesh floor under individual transparent Plexiglas box and acclimatized for at least 30 minutes before starting the von Frey test. Filaments were then applied 1-2 seconds through the mesh floor with enough strength to cause the filament to slightly bend. Each filament was tested 3 times. Care was taken to stimulate different areas within the lower abdominal region in the vicinity of the urinary bladder to avoid desensitization.
The study design differs from that of Example 24 (cf. FIG. 50 A) only in the route of administration (intravenously instead of intravesically) and the doses as specified above. Birefly, acute cystitis was induced by CYP injection (i.p.) at Do (as described above). […]

hJNK3 = hJNK3 (Homo sapiens, UniProt P53779); experiment: hJNK3 | IC50; conditions: read-out: hJNK3 | IC50
hJNK3, sequence (P53779 whole entry, looked up): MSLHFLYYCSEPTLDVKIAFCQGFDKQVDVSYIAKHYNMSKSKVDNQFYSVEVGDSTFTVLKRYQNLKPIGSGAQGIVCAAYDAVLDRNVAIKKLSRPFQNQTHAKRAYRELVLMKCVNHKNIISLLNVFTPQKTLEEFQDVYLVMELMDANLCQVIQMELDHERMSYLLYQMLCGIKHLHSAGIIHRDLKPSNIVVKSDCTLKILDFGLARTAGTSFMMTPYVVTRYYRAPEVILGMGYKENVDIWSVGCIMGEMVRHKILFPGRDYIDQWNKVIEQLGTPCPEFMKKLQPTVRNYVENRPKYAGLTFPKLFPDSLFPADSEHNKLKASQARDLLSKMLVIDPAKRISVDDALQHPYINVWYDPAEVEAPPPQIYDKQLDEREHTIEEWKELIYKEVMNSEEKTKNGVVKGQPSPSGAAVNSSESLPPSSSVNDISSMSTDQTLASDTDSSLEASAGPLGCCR

## CC(C)C[C@H](NC(=O)[C@H](CC(N)=O)NC(=O)[C@H](CC(C)C)NC(=O)[C@@H](NC(=O)[C@@H](C)NC(=O)[C@@H]1CCCN1C(=O)[C@H](CCCNC(=N)N)NC(=O)[C@@H](CCCCN)NC(=O)[C@@H]1CCCN1C(=O)[C@H](CCCNC(=N)N)NC(=O)[C@@H](CCCNC(=N)N)NC(=O)[C@H](CCCNC(=N)N)NC(=O)[C@H](CCCNC(=N)N)NC(=O)[C@H](CCC(N)=O)NC(=O)[C@@H](CCCNC(=N)N)NC(=O)[C@H](CCCNC(=N)N)NC(=O)[C@H](CCCCN)NC(=O)[C@H](CCCCN)NC(=O)[C@H](N)CCCNC(=N)N)[C@@H](C)O)C(=O)N[C@H](Cc1ccccc1)C(N)=O [SEQ ID NO: 172, rKKRrQRRrRPkRPaTLNLf] (H-[dR]KKR[dR]QRR[dR]RP[dK]RP[dA]TLNL[dF]-NH2; N-terminus assumed)
Rat whole blood
  PMA-iono-induced IL-2 release: did efficiently reduce
Human whole blood
  LPS-induced IL-6 release: did reduce the LPS-induced IL-6 release in a dose-dependent manner
Primary human T-cells
  IL-2 secretion in response to CD3/CD28 stimulation: blocks IL-2 secretion
  IL-2 secretion in response to PMA/Ionomycin: blocks IL-2 secretion
[1]
  AUC 1-8 g (allodynia) vs vehicle: significantly decreased
  AUC 8-60 g (hyperalgesia) vs vehicle: significantly reduced
  nociceptive scores vs vehicle: significantly decreased
  nociceptive threshold vs vehicle: significantly increased
hJNK3
  IC50: 102 nM
